We go through two molecules from ChEMBL document CHEMBL1201862, “PubChem BioAssay data set” (2004).

The structures appear in SMILES notation.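 Exposure lasted 48 hours, with cells grown in 96-well plates and compounds tested at five concentrations. GI50 = concentration required for 50% inhibition of growth.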 The source made the active and inactive calls. No stated cut-off is given here; in the data, active = GI50 up to about 1.1 µM and inactive = higher.

Some test systems named below: M14; UACC-257; DMS-114; SK-MEL-2; M19-MEL; U-251; Malme-3M; LOX IMVI; TK-10; SNB-78; COLO 205; NCI-H226; DLD-1.
Assay in all cases: NCI tumour cell line growth inhibition, 48 h

For `CCCC(=O)OC[n+]1ccc2c(C)c3[nH]c4ccc(OC)cc4c3c(C)c2c1`, the GI50 was 708 nM (active) with M14; 2080 nM (inactive) in the test on UACC-257; 470 nM (active) in the test on DMS-114; 1160 nM (inactive) in the test on SK-MEL-2; 555 nM (active) with M19-MEL; 391 nM (active) in the test on U-251. Besides, the GI50 is 1450 nM (inactive) in the test with Malme-3M; 230 nM (active) in the test on LOX IMVI; 2900 nM (inactive) in the test with TK-10; 594 nM (active) with SNB-78; 427 nM (active) in the test on COLO 205; 444 nM (active) in the test on NCI-H226. Besides, the GI50 with DLD-1 was 196 nM (active).
For the molecule `O=C(O)CCCCCCCCC(=O)O` [SEBACIC ACID], the GI50 in the test on UACC-257 was 108000 nM (inactive); with DMS-114, 50000 nM (inactive); with SK-MEL-2, > 500000 nM (inactive); in the test on M19-MEL it was > 79300 nM (inactive); with U-251, > 79300 nM (inactive); in the test with Malme-3M it was > 500000 nM (inactive). In addition, the GI50 is > 500000 nM (inactive) in the test on LOX IMVI; > 500000 nM (inactive) in the test with SNB-78; > 79300 nM (inactive) in the test on COLO 205; > 500000 nM (inactive) in the test with NCI-H226; 108000 nM (inactive) in the test with DLD-1.
